“And” between values parts separate entries of the source, which are not always exact repeats. Equal entries are not always repeated.
Legend:
Test in all cases: MIC, NCCLS broth microdilution
Type in all cases: cell-based
E. faecalis A7789 Line-R = conditions: Table 6, 1st
Procedure: (§1) The efficacy of ramoplanin was tested against recently isolated VRE that are resistant to linezolid and quinupristin/dalfopristin. The culture media containing ramoplanin was supplemented with 0.02% bovine serum albumin (BSA) to prevent ramoplanin binding to the plastic. MIC values were determined in both cation-adjusted Mueller-Hinton broth (CAMHB) and trypticase soy broth (TSB) by the National Committee for Clinical Laboratory Standards (NCCLS) broth microdilution method. Macromolecular biosynthesis experiments were done by following the incorporation of carbon-14-labeled N-acetylglucosamine, acetic acid, amino acids, uridine, and thymidine into peptidoglycan, fatty acid, protein, RNA and DNA, respectively.

E. faecium A6349 Line-R = test system: E. faecium A6349 Line-R
Procedure: as §1

E. gallinarum UA604 = test system: E. gallinarum UA604
Procedure: as §1

S. aureus ATCC43300 MRSA = test system: S. aureus ATCC43300 MRSA
Procedure: as §1

E. faecium UA210 = conditions: E. faecium UA210
Procedure: as §1

S. epidermidis ATCC14990 = conditions: S. epidermidis ATCC14990
Procedure: as §1

S. aureus ATCC12600 MRSA = test system: S. aureus ATCC12600 MRSA
Procedure: as §1

E. faecium A4192 Syn-R = test system: E. faecium A4192 Syn-R
Procedure: as §1

E. faecium A6350 Line-R = test system: E. faecium A6350 Line-R
Procedure: as §1

E. faecium A2735 Syn-R = test system: E. faecium A2735 Syn-R
Procedure: as §1

E. faecium A5959 Line-R = conditions: Table 6, 2nd
Procedure: as §1

E. faecalis ATCC29212 = conditions: E. faecalis ATCC29212
Procedure: as §1

S. aureus ATCC27660 MSSA = test system: S. aureus ATCC27660 MSSA
Procedure: as §1

E. faecium ATCC700221 = conditions: E. faecium ATCC700221
Procedure: as §1

S. epidermidis ATCC35983 = conditions: S. epidermidis ATCC35983
Procedure: as §1

E. faecium A6343 Line-R = test system: E. faecium A6343 Line-R
Procedure: as §1

S. aureus ATCC35556 MRSA = test system: S. aureus ATCC35556 MRSA
Procedure: as §1

E. faecium A6345 Line-R = conditions: for MIC: E. faecium A6345 Line-R
Procedure: as §1

S. aureus ATCC19636 MSSA = test system: S. aureus ATCC19636 MSSA
Procedure: as §1

S. aureus ATCC27659 MSSA = test system: S. aureus ATCC27659 MSSA
Procedure: as §1

E. faecium A-5960 Line-R = conditions: Table 6, 2nd
Procedure: as §1

S. epidermidis ATCC12228 = conditions: S. epidermidis ATCC12228
Procedure: as §1

E. faecium 1836 = conditions: E. faecium 1836
Procedure: as §1

In the case of Ramoplanin, the MIC (E. faecalis A7789 Line-R) is reported as 0.06 µg/mL, the MIC (E. faecium A6349 Line-R; Table 6, 1st) is reported as 0.125 µg/mL and the MIC (E. faecium A6349 Line-R; Table 6, 2nd) is reported as 0.25 µg/mL. The MIC (E. gallinarum UA604; CAMHB) was 0.125, 0.125 μg/ml, the MIC (E. gallinarum UA604; TSB) was 0.25, 0.25 μg/ml and the MIC (E. gallinarum UA604; Table 6, 1st) was 0.06 µg/mL. It also gave an MIC (E. gallinarum UA604; Table 6, 2nd) of 0.125 µg/mL, an MIC (S. aureus ATCC43300 MRSA; S. aureus ATCC43300 MRSA/VISA, Table 6, 1st) of 2 µg/mL and an MIC (S. aureus ATCC43300 MRSA; S. aureus ATCC43300 MRSA/VISA, Table 6, 2nd) of 0.25 µg/mL. The MIC (S. aureus ATCC43300 MRSA; S. aureus ATCC43300 MRSA, CAMHB) was 1, 1 μg/ml, the MIC (S. aureus ATCC43300 MRSA; S. aureus ATCC43300 MRSA, TSB) was 0.5, 0.5 μg/ml and the MIC (E. faecium UA210; CAMHB) was 0.125, 0.125 μg/ml. For the same substance, the MIC (E. faecium UA210; TSB) was 0.125, 0.125 μg/ml, the MIC (E. faecium UA210; Table 6, 1st) was 0.06 µg/mL and the MIC (E. faecium UA210; Table 6, 2nd) was 0.125 µg/mL. The MIC (S. epidermidis ATCC14990; CAMHB) was 0.5, 0.5 μg/ml, the MIC (S. epidermidis ATCC14990; TSB) was 0.5, 0.5 μg/ml and the MIC (S. epidermidis ATCC14990; Table 6, 1st) was 0.5 µg/mL. For the same substance, the MIC (S. epidermidis ATCC14990; Table 6, 2nd) was 0.25 µg/mL, the MIC (S. aureus ATCC12600 MRSA; CAMHB) was 0.5, 0.5 μg/ml and the MIC (S. aureus ATCC12600 MRSA; TSB) was 0.5, 0.5 μg/ml. The MIC (S. aureus ATCC12600 MRSA; Table 6, 1st) was 1 µg/mL, the MIC (S. aureus ATCC12600 MRSA; Table 6, 2nd) was 0.5 µg/mL and the MIC (E. faecium A4192 Syn-R; CAMHB) was 0.25, 0.25 μg/ml. The MIC (E. faecium A4192 Syn-R; TSB) was 0.5, 0.5 μg/ml, the MIC (E. faecium A4192 Syn-R; Table 6, 1st) was 0.25 µg/mL and the MIC (E. faecium A4192 Syn-R; Table 6, 2nd) was 0.5 µg/mL. For the same substance, the MIC (E. faecium A6350 Line-R; CAMHB) was 0.25, 0.25 μg/ml, the MIC (E. faecium A6350 Line-R; TSB) was 0.5, 0.5 μg/ml and the MIC (E. faecium A6350 Line-R; Table 6, 1st) was 0.25 µg/mL. The MIC (E. faecium A6350 Line-R; Table 6, 2nd) was 0.25 µg/mL, the MIC (E. faecium A2735 Syn-R; CAMHB) was 0.25, 0.25 μg/ml and the MIC (E. faecium A2735 Syn-R; TSB) was 0.5, 0.5 μg/ml. The MIC (E. faecium A2735 Syn-R; Table 6, 1st) was 0.25 µg/mL, the MIC (E. faecium A2735 Syn-R; Table 6, 2nd) was 0.25 µg/mL and the MIC (E. faecium A5959 Line-R) was 0.25 µg/mL. For the same substance, the MIC (E. faecalis ATCC29212; CAMHB) was 0.5, 0.5 μg/ml, the MIC (E. faecalis ATCC29212; TSB) was 0.5, 0.5 μg/ml and the MIC (E. faecalis ATCC29212; Table 6, 1st) was 0.25 µg/mL. The MIC (E. faecalis ATCC29212; Table 6, 2nd) was 0.5 µg/mL and 0.25 µg/mL, the MIC (S. aureus ATCC27660 MSSA; CAMHB) was 0.5 µg/mL and 1 µg/mL and the MIC (S. aureus ATCC27660 MSSA; TSB) was 0.25, 0.25 μg/ml. For the same substance, the MIC (S. aureus ATCC27660 MSSA; Table 6, 1st) was 2 µg/mL, the MIC (S. aureus ATCC27660 MSSA; Table 6, 2nd) was 1 µg/mL and the MIC (E. faecium ATCC700221; CAMHB) was 0.25, 0.25 μg/ml. For the same substance, the MIC (E. faecium ATCC700221; TSB) was 0.5, 0.5 μg/ml, the MIC (E. faecium ATCC700221; Table 6, 1st) was 0.25 µg/mL and the MIC (E. faecium ATCC700221; Table 6, 2nd) was 0.25 µg/mL. For the same substance, the MIC (S. epidermidis ATCC35983; CAMHB) was 0.5, 0.5 μg/ml, the MIC (S. epidermidis ATCC35983; TSB) was 2 µg/mL and 1 µg/mL and the MIC (S. epidermidis ATCC35983; Table 6, 2nd) was 0.5 µg/mL. For the same substance, the MIC (E. faecium A6343 Line-R; CAMHB) was 0.25, 0.25 μg/ml, the MIC (E. faecium A6343 Line-R; TSB) was 0.25, 0.25 μg/ml and the MIC (E. faecium A6343 Line-R; Table 6, 1st) was 0.125 µg/mL. For the same substance, the MIC (E. faecium A6343 Line-R; Table 6, 2nd) was 0.25 µg/mL, the MIC (S. aureus ATCC35556 MRSA; CAMHB) was 0.5, 0.5 μg/ml and the MIC (S. aureus ATCC35556 MRSA; TSB) was 0.125, 0.125 μg/ml. The MIC (S. aureus ATCC35556 MRSA; Table 6, 1st) was 1 µg/mL, the MIC (S. aureus ATCC35556 MRSA; Table 6, 2nd) was 0.5 µg/mL and the “reference MIC for strains used for killing curve” value (E. faecium A6345 Line-R; E. faecium A6345 Line-R. as printed, second row of Table 3) was 0.25 µg/mL. For the same substance, the “reference MIC for strains used for killing curve” value (E. faecium A6345 Line-R; E. faecium A6345 Line-R., first row of Table 3) was 0.25 µg/mL, the MIC (E. faecium A6345 Line-R; CAMHB) was 0.125, 0.125 μg/ml and the MIC (E. faecium A6345 Line-R; TSB) was 0.25, 0.25 μg/ml. For the same substance, the MIC (E. faecium A6345 Line-R; Table 6, 1st) was 0.125 µg/mL, the MIC (E. faecium A6345 Line-R; Table 6, 2nd) was 0.25 µg/mL and the MIC (S. aureus ATCC19636 MSSA; CAMHB) was 0.5, 0.5 μg/ml. For the same substance, the MIC (S. aureus ATCC19636 MSSA; TSB) was 0.25, 0.25 μg/ml, the MIC (S. aureus ATCC19636 MSSA; Table 6, 1st) was 1 µg/mL and the MIC (S. aureus ATCC19636 MSSA; Table 6, 2nd) was 1 µg/mL. The MIC (S. aureus ATCC27659 MSSA; CAMHB) was 0.25, 0.25 μg/ml, the MIC (S. aureus ATCC27659 MSSA; TSB) was 0.25, 0.25 μg/ml and the MIC (S. aureus ATCC27659 MSSA; Table 6, 1st) was 1 µg/mL. For the same substance, the MIC (S. aureus ATCC27659 MSSA; Table 6, 2nd) was 0.25 µg/mL, the MIC (E. faecium A-5960 Line-R) was 0.25 µg/mL and the MIC (S. epidermidis ATCC12228; CAMHB) was 0.5, 0.5 μg/ml. The MIC (S. epidermidis ATCC12228; TSB) was 1, 1 μg/ml, the MIC (S. epidermidis ATCC12228; Table 6, 1st) was 1 µg/mL and the MIC (S. epidermidis ATCC12228; Table 6, 2nd) was 0.25 µg/mL. The MIC (E. faecium 1836; CAMHB) was 0.5, 0.5 μg/ml, the MIC (E. faecium 1836; TSB) was 0.5, 0.5 μg/ml and the MIC (E. faecium 1836; Table 6, 1st) was 0.25 µg/mL. For the same substance, the MIC (E. faecium 1836; Table 6, 2nd) was 0.5 µg/mL.

From patent publication US20040127403A1, “Methods for treating and preventing Gram-positive bacteremias” (priority 2002, published 2004)
